Results: US20260069656A1, “Nutritive Polypeptides and Formulations Thereof, and Methods of Production and Use Thereof” (Axcella Health Inc., priority 2013, published 2026)

What was measured:
[1] = pH solubility screen in Citric Acid / Dibasic Sodium Phosphate buffers; type: physicochemical
Method: pH Solubility. […] Protein was either lyophilized and then resuspended in buffer cocktail mixtures, or concentrated and then spiked into buffer cocktail mixtures at a final protein concentration of 5 to 30 mg/ml. As a control, protein was also dissolved in a solution of 8 M urea. Protein solutions were shaken for 10 min at room temperature. Turbidity of proteins was determined by measuring the absorbance of protein solutions at 650 nm. The protein solution was then centrifuged for 10 min at 1100×g to pellet undissolved or precipitated protein. The soluble protein fraction (supernatant) was sampled and protein concentration was measured by one or more of the following methods: Coomassie Plus Protein Assay (Pierce), Chip electrophoresis, gel electrophoresis, and/or absorbance at 280 nm. The pH range over which select proteins remained greater than 80% soluble as determined by Bradford and the A650 value are listed in Table E31C.

GLP-2 = test: Total GLP-2 ELISA, plasma GLP-2 in healthy fasted rats; type: in vivo, rat
Method: Animals were treated and acutely dosed with test articles as part of pharmacokinetic rodent experiments according to methods described herein. In this experiment, two test articles were analyzed, vehicle and a nutritive formulation of SEQID-240, dosed at 1.54 g/kg.
Total GLP-2 was measured with Millipore Total GLP-2 ELISA Kit (Millipore, EZGLP2-37K). The ELISA kit was equilibrated to room temperature for a minimum of 30 minutes prior to running the assay. The kit GLP-2 Standard, Quality Control 1 and Quality Control 2 were reconstituted with 500 μL MilliQ water, inverted 5 times and incubated at room temperature for 5 minutes, then gently vortexed to mix. The standard curve was prepared by diluting the GLP-2 Standard serially 1:1 in kit Assay Buffer to generate an eight point standard curve including 0 ng/mL GLP-2. Plasma samples were thawed on ice and centrifuged for 10 minutes at approximately 1109× rcf to pellet insoluble material. Fasted plasma matrix from untreated, fasted rat was prepared for running the standard and quality controls in duplicate at 20% (2×).
1× Wash Buffer was prepared in a clean 500 mL glass bottle by combining 50 mL 10× Wash Buffer with 450 mL MilliQ water. Strips were prepared by washing 3 times with 300 μL 1× Wash Buffer applied with a 30-300 μL 8-channel pipette. Between washes the wash buffer was decanted into a waste receptacle and the plate tapped sharply on a stack of paper towels to remove remaining wash buffer.
Following the first wash, 90 μL of Assay Buffer was added to sample wells, and 50 μL of 20% matrix in Assay Buffer was added to all standard and quality control wells. 10 μL of sample was added to each sample well and 50 μL of standard and quality control were added to matrix containing wells. Samples, standards and quality control wells were run in duplicate, except for 0 ng/mL GLP-2 standard which was run in quadruplicate.
The plate was sealed with a plastic plate seal and incubated at room temperature on a horizontal plate shaker at 450 rpm for 2 hours. Following the first incubation, the plate was washed three times with 1× Wash Buffer, decanting into a waste receptacle and tapping the inverted plate sharply on a stack of paper towels to remove excess wash buffer after each wash.
100 μL of Detection Antibody was added to each well and the plate was sealed with a plastic plate seal and incubated at room temperature on a horizontal plate shaker at 450 rpm for 1 hour. […]
Absorbance was measured on a SynergyMX Plate Reader at 450 nm and 590 nm. Measured values were the difference between 450 nm and 590 nm absorbance values.
Data were analyzed with GraphPad Prism 6.03. […]

[2] = Solubility of proteins (lyophilized/reconstituted or ultrafiltered); conditions: produced in E. coli unless otherwise noted
Method: Solubility. […] Protein samples were dried by lyophilization on a FreeZone Freeze Dry System (Labconco) using the manufacturer's standard protocol and then resuspended in buffer to the desired concentration. Centrifugal and tangential ultrafiltration were used to selectively remove buffer from the protein sample until the desired concentration was reached. Centrifugal ultrafiltration of protein solutions was performed by centrifugation (10,000×g) of 10 mg of protein in an Amicon centrifugal filter (Millipore) with a molecular weight cutoff of 3 kDa, 10 kDa, or 30 kDa, depending on the protein size, until the desired contrentration was reached. Ultrafiltration of protein solutions was performed on Hydrosart ultrafiltration cassettes (Sartorius Stedim, Bohemia, NY) with a molecular weight cutoff of 3 kDa, 10 kDa, or 30 kDa, depending on the protein size, at a cross flow rate of 12 L/m2/min. For most processes, transmembrane pressure was maintained at 20 psi and performed until the desired contrentration was reached.
The protein concentration of the above samples was measured by one or a combination of the following methods: Coomassie Plus Protein Assay, absorbance at 280 nm (A280), and total amino acid analysis. Coomassie Plus Protein Assays (Pierce) were performed according to the manufacturer's protocol. Absorbance at 280 nm was measured on a Nanodrop 2000 UV-Vis spectrophotometer. Protein concentration was determined using the A280 value and molar extinction coefficient, which was calculated by primary amino acid sequence using ProtParam (Gasteiger, Elisabeth, et al. The proteomics protocols handbook. Humana Press, 2005. 571-607.). Total amino acids were analyzed by HPLC after acid hydrolysis as described in Henderson, J. W., et al. Agilent Technologies (2010).

With “SEQID-00240: nutritive polypeptide naturally produced in Cow, recombinantly expressed in E. coli (DLEGSLEQEKKLRMDLERAKRKLEGDLKLAQESTMDIENDKQQLDEKLKK; listed as Bos taurus)” the “pH Range where Protein is >80% detected as Soluble and A650 <1 OD: Low” value ([1]; lower pH of range) was 6.6, the “pH Range where Protein is >80% detected as Soluble and A650 <1 OD: High” value ([1]; upper pH of range) was 9.1 and the “GLP-2 area under curve vs vehicle” value (GLP-2; 0-60 minutes, P<0.005) was “significantly greater in the SEQID-00240 treatment compared to vehicle”. The “GLP-2 area under curve vs vehicle” value (GLP-2; 0-240 minutes, P<0.01) was “significantly greater in the SEQID-00240 treatment compared to vehicle”, the “total GLP-2 concentration vs vehicle” value (GLP-2; 1.54 g/kg, at 15, 30, 60 and 120 minutes following treatment) was “statistically significantly greater than vehicle” and the “total GLP-2 concentration relative to time 0” value (GLP-2; 1.54 g/kg, at 15, 30 and 60 minutes following gavage) was “statistically significant increase in GLP-2 concentration relative to time 0”. For the same substance, the “Solubility” value [2] was 163 mg/mL.
